Four molecules from ChEMBL document CHEMBL1201862, “PubChem BioAssay data set” (2004) can be followed below.

The source made the active and inactive calls.

Assay [1] has as its target 26S proteasome non-ATPase regulatory subunit 14 (Homo sapiens, UniProt O00487). In words: inhibition of proteasome subunit RPN11 – biochemical, fluorescence polarization, uHTS hits, confirmation (AID 602368). The format is functional. (Polarisation of emitted light reports the rotation of a fluorescent probe.)
The target in assay [2] is T1, Rac GTPase-activating protein 1 (Homo sapiens, UniProt Q9H0H5).
T1 sequence (Q9H0H5 whole entry): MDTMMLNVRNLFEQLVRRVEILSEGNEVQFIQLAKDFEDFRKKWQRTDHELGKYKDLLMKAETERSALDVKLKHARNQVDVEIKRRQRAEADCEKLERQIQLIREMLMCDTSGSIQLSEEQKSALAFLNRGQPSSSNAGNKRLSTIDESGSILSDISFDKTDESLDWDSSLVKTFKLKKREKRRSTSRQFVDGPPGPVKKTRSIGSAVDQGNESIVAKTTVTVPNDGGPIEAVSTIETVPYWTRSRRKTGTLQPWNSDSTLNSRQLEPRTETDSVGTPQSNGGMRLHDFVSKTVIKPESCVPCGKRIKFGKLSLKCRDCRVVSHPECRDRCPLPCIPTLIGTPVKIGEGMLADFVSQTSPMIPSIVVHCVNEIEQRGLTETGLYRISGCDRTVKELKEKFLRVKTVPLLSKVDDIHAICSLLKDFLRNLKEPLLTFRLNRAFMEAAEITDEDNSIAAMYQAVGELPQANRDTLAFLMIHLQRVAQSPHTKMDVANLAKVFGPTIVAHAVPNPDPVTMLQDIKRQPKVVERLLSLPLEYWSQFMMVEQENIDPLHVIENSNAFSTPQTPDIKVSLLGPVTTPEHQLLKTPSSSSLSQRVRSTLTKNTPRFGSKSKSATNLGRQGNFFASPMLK
In words: MgcRacGAP GTPase-activating activity inhibitors, confirmation, biochemical, ADP Hunter fluorescence, primary and confirmatory (AID 624330). It counts as functional.

Assay [3] deals with 72 kDa type IV collagenase (Homo sapiens, UniProt P08253). In words: Dose Response validation of uHTS RPN11 inhibitor hits using a MMP-2 Fluorescence assay. The format is functional.
72 kDa type IV collagenase, sequence (P08253 whole entry): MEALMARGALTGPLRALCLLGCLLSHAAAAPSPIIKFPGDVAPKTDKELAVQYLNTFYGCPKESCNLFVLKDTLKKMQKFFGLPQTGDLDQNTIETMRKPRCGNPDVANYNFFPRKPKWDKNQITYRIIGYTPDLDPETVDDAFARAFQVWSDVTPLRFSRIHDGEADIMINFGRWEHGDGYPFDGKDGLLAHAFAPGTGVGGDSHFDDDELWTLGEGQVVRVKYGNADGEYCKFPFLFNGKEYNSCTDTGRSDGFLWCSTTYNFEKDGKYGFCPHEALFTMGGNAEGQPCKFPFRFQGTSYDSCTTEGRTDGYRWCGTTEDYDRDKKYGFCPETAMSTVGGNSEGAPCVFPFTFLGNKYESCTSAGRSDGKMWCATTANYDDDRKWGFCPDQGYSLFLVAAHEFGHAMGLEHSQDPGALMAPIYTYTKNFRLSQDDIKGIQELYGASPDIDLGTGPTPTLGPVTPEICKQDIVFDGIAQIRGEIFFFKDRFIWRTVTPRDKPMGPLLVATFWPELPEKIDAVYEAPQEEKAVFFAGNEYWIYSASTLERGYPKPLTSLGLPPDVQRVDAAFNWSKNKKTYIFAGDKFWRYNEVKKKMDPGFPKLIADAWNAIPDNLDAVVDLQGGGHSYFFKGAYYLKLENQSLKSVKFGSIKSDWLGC
In assay [4] the target is Benomyl/methotrexate resistance protein (Candida albicans, UniProt P28873). Briefly: CaMdr1 efflux pump inhibitor potency, dose response, singleplex, Cherry Pick1 hits (AID 588608). The format is functional.
The target of the next assay is Genome polyprotein (dengue virus type 2, UniProt P29990). In words: Dengue-2 NS5 methyltransferase inhibitors, primary screen, biochemical, confirmation dose response (AID 588689). The format is functional.
Genome polyprotein, sequence (P29990 2492-3391 limits assumed): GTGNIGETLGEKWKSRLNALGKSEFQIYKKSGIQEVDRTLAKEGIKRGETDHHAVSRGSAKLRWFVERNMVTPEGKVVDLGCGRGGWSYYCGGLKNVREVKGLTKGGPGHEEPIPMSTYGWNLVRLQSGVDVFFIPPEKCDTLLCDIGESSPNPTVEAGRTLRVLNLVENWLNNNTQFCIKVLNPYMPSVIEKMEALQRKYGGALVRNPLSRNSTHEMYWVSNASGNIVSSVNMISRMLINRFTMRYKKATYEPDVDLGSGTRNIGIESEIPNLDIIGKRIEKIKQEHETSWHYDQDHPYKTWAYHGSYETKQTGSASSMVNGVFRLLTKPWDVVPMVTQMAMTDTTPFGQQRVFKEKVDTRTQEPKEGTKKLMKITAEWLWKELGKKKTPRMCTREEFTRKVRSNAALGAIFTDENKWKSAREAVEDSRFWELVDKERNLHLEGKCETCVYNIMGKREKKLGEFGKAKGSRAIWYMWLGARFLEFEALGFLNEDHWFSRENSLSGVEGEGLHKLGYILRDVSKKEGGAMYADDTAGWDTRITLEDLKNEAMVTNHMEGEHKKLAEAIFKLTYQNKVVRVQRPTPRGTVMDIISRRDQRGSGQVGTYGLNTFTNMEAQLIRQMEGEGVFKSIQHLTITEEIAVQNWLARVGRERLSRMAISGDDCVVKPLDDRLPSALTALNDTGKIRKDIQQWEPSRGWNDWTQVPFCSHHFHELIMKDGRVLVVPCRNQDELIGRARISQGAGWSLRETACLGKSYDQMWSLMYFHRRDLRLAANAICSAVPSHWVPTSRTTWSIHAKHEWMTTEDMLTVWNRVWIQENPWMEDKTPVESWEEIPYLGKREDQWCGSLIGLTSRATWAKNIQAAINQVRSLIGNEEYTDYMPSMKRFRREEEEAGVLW
For assay [5], the target named is T2, Zinc finger protein mex-5 (Caenorhabditis elegans, UniProt Q9XUB2).
T2 sequence (Q9XUB2 whole entry): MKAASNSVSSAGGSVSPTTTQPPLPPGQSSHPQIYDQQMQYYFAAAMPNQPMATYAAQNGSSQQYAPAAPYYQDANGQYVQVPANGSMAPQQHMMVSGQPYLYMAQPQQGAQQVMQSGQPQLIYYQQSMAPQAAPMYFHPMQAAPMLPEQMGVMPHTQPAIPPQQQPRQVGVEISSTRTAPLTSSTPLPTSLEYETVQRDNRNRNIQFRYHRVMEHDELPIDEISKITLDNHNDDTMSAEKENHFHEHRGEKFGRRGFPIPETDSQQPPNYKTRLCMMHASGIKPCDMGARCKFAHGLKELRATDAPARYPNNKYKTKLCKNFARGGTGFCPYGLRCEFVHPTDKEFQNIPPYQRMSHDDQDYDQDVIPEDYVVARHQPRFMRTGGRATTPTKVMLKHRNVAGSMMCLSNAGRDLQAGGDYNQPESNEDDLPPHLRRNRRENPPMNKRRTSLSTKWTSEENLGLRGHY
Briefly: MEX-5/TCR-2 RNA interaction inhibitors, dose response, biochemical, C. elegans, fluorescence polarization (AID 1960).

Assay [6] concerns the target DNA (cytosine-5)-methyltransferase 1 (Homo sapiens, UniProt P26358). Briefly: DNMT1 methyltransferase inhibitors, confirmation, biochemical, fluorescent molecular beacon (AID 602386). The format is functional.
In another assay the target is Prothrombin (Bos taurus, UniProt P00735). Briefly: thrombin inhibition, dose response, biochemical, fluorescence polarization, uHTS hits (AID 602369). It counts as functional.
In assay [7] the target is Multidrug resistance protein CDR1 (Candida albicans, UniProt P43071). In words: CaCDR1 efflux pump inhibitors in yeast, dose response, S. cerevisiae AD1-8u, singleplex, Cherry Pick1 hits (AID 588606). The format is functional.
Multidrug resistance protein CDR1, sequence (P43071 whole entry, looked up): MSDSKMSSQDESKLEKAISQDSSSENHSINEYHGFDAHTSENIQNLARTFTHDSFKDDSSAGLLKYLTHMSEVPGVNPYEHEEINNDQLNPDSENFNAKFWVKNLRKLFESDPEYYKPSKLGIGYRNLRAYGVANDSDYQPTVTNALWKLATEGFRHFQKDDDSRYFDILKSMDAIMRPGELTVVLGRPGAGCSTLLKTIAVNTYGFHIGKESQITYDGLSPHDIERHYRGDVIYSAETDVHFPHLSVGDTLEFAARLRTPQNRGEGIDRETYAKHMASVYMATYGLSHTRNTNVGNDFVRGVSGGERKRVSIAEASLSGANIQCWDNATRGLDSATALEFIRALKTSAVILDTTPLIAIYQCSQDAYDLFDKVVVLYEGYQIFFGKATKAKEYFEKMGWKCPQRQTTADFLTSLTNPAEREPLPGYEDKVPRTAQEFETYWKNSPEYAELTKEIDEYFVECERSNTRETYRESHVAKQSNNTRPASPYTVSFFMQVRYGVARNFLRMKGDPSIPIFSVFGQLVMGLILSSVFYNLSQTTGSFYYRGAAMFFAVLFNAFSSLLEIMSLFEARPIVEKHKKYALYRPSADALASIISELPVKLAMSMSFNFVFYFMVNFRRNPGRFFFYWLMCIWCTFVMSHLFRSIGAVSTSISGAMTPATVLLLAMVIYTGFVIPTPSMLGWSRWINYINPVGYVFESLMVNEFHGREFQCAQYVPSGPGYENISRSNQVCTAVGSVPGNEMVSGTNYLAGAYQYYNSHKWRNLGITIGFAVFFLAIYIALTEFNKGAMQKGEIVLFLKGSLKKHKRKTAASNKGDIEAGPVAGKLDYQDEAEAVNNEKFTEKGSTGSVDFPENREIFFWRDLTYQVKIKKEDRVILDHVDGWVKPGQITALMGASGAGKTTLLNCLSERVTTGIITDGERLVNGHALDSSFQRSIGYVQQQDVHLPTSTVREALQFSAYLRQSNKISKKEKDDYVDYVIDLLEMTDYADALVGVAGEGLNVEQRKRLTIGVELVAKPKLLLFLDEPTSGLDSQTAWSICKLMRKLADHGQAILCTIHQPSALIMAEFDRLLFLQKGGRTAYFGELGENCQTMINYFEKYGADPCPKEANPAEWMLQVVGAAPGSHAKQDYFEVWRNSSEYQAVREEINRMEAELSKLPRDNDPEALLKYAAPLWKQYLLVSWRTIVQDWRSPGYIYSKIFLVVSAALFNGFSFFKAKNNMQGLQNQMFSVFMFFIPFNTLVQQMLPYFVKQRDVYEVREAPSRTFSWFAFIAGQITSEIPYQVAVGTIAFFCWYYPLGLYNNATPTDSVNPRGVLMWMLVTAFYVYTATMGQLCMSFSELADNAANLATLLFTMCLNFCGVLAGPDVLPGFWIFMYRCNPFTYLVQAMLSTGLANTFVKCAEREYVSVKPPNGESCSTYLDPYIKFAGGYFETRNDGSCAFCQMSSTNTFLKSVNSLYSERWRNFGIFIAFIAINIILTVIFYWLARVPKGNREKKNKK
In assay [8] the target is T3, RNA-binding protein pos-1 (Caenorhabditis elegans, UniProt G5EF15).
T3 sequence (G5EF15 whole entry): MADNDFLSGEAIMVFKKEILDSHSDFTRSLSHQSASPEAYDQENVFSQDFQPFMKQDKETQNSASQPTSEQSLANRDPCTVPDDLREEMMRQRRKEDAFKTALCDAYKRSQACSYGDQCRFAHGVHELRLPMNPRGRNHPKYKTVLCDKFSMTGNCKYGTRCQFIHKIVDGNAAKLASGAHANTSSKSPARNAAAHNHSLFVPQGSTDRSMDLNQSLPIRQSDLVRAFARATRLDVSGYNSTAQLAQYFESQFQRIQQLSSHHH
In words: inhibitors of POS-1/mex-3 RNA binding, dose response, biochemical, fluorescence polarization (AID 1964).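 Further: purified POS-1 fused to maltose binding protein made in E. coli; potency of compounds blocking POS-1 binding to fluorescent RNA.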

Assay [9] has as its target T4, Multidrug resistance protein CDR2 (Candida albicans (strain SC5314 / ATCC MYA-2876) (Yeast), UniProt P78595).
T4 sequence (P78595 whole entry): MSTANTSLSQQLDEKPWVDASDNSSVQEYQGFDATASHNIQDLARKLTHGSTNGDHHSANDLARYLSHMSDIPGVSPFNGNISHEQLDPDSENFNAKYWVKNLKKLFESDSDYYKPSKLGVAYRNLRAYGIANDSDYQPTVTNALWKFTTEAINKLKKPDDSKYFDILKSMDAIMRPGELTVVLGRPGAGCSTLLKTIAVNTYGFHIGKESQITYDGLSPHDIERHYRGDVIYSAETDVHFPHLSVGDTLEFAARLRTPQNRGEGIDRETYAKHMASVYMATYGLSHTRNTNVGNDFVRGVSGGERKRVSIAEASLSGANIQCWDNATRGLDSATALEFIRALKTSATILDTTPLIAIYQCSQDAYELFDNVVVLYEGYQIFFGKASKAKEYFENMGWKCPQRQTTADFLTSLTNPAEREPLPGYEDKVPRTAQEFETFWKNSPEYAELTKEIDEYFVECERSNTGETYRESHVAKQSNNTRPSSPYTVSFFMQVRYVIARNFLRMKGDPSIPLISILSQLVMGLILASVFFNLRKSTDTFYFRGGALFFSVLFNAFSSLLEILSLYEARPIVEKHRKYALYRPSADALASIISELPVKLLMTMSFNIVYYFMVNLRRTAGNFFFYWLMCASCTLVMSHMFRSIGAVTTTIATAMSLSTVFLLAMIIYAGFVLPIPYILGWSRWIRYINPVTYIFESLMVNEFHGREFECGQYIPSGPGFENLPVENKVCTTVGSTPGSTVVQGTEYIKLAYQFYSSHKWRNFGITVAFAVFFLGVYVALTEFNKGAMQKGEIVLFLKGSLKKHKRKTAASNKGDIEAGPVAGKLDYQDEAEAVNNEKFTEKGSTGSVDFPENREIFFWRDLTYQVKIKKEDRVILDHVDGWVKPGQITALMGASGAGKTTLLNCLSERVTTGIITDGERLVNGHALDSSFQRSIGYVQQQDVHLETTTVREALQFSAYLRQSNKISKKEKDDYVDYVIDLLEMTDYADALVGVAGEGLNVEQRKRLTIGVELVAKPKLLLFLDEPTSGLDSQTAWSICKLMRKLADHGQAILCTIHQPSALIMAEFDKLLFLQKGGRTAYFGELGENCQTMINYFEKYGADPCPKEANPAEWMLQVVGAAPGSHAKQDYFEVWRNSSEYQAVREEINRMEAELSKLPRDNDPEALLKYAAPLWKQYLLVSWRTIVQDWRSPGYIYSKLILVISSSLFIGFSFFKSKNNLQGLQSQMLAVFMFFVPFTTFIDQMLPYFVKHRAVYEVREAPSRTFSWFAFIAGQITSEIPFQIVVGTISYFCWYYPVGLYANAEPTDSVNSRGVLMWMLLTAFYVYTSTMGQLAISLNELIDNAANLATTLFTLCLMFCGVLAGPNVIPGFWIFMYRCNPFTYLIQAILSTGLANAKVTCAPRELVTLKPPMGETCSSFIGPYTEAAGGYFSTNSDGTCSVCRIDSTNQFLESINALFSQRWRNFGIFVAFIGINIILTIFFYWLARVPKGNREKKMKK
Briefly: CaCDR2 efflux pump inhibitors in yeast, dose response, S. cerevisiae AD1-8u, singleplex, Cherry Pick1 hits (AID 588604). The format is functional.

For assay [10], the target named is T5, High affinity choline transporter 1 (Homo sapiens, UniProt Q9GZV3).
T5 sequence (Q9GZV3 whole entry): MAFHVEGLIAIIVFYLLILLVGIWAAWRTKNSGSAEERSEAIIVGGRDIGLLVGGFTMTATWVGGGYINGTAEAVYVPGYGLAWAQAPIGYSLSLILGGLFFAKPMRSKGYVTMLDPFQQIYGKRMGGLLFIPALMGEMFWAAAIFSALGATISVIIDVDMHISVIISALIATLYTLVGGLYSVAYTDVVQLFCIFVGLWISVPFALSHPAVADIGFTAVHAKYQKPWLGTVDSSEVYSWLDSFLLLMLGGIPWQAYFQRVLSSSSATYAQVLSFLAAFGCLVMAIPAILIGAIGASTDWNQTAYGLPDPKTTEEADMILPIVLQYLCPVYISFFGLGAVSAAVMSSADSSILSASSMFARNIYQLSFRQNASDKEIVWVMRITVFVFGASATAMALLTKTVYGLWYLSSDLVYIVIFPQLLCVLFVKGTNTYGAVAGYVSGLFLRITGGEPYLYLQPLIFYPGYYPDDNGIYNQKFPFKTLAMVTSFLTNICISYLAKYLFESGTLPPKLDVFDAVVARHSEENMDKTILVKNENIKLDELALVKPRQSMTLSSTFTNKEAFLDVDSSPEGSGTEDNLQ
Briefly: CHT inhibitors, dose response, cell-based, 10-point CRC, membrane potential dye (AID 588401).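 Further: membrane potential dye fluorescence of choline-evoked depolarization via CHT.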 The format is functional.

The target in assay [11] is T5, High affinity choline transporter 1. In words: CHT inhibitors, dose response, cell-based, 5-point CRC, membrane potential dye (AID 504840). It counts as functional.
The target of assay [12] is T6, Apoptotic protease-activating factor 1 (Homo sapiens, UniProt O14727).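 Further: caspase-3 cleavage of fluorogenic Rh110 DEVD substrate downstream of apoptosome activation.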
T6 sequence (O14727 whole entry): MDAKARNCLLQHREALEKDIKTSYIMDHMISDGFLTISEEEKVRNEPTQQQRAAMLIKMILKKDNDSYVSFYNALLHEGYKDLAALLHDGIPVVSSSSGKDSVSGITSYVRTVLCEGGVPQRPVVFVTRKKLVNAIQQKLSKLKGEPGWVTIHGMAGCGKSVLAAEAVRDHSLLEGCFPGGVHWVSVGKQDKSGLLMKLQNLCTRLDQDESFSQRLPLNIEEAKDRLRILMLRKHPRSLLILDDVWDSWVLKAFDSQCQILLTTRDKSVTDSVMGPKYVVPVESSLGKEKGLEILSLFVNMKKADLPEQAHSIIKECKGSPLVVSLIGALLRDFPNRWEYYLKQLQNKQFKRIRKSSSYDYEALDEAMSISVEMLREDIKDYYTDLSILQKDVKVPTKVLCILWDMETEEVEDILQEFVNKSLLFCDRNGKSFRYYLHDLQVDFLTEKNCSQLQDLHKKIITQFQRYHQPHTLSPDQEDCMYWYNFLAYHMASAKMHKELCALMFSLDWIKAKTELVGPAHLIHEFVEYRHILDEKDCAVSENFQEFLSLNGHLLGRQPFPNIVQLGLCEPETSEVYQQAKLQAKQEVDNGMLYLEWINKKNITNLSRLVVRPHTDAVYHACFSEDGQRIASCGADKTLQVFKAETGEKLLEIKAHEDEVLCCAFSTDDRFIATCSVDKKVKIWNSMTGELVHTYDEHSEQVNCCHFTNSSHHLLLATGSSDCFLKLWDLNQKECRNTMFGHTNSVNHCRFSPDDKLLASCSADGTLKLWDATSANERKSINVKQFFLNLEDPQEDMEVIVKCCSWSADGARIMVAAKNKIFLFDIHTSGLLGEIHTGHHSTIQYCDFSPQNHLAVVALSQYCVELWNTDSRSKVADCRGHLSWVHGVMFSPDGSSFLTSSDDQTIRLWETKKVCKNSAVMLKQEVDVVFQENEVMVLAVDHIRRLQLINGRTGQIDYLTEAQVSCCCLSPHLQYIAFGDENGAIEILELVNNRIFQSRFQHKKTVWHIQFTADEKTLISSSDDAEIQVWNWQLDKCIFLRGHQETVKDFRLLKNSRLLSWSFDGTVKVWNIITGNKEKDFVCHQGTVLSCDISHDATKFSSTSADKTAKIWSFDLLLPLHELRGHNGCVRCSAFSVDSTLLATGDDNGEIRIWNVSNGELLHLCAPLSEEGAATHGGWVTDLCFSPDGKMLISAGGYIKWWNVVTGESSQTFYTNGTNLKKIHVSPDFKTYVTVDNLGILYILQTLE
In words: SAR analysis of small molecule Activators of Apaf-1 in a Fluorescent assay. The conditions noted are these: read-out: EC50_Mean. It counts as functional.

26S proteasome non-ATPase regulatory subunit 14, sequence (O00487 whole entry): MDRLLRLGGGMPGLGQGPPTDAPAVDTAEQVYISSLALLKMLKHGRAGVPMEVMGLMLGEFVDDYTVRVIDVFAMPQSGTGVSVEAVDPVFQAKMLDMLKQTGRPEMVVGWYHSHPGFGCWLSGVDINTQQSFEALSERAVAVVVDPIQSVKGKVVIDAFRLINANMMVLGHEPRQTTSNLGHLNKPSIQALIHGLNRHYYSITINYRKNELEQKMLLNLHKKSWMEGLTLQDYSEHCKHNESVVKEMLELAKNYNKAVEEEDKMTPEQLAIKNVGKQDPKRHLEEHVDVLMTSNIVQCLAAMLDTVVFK
DNA (cytosine-5)-methyltransferase 1, sequence (P26358 whole entry): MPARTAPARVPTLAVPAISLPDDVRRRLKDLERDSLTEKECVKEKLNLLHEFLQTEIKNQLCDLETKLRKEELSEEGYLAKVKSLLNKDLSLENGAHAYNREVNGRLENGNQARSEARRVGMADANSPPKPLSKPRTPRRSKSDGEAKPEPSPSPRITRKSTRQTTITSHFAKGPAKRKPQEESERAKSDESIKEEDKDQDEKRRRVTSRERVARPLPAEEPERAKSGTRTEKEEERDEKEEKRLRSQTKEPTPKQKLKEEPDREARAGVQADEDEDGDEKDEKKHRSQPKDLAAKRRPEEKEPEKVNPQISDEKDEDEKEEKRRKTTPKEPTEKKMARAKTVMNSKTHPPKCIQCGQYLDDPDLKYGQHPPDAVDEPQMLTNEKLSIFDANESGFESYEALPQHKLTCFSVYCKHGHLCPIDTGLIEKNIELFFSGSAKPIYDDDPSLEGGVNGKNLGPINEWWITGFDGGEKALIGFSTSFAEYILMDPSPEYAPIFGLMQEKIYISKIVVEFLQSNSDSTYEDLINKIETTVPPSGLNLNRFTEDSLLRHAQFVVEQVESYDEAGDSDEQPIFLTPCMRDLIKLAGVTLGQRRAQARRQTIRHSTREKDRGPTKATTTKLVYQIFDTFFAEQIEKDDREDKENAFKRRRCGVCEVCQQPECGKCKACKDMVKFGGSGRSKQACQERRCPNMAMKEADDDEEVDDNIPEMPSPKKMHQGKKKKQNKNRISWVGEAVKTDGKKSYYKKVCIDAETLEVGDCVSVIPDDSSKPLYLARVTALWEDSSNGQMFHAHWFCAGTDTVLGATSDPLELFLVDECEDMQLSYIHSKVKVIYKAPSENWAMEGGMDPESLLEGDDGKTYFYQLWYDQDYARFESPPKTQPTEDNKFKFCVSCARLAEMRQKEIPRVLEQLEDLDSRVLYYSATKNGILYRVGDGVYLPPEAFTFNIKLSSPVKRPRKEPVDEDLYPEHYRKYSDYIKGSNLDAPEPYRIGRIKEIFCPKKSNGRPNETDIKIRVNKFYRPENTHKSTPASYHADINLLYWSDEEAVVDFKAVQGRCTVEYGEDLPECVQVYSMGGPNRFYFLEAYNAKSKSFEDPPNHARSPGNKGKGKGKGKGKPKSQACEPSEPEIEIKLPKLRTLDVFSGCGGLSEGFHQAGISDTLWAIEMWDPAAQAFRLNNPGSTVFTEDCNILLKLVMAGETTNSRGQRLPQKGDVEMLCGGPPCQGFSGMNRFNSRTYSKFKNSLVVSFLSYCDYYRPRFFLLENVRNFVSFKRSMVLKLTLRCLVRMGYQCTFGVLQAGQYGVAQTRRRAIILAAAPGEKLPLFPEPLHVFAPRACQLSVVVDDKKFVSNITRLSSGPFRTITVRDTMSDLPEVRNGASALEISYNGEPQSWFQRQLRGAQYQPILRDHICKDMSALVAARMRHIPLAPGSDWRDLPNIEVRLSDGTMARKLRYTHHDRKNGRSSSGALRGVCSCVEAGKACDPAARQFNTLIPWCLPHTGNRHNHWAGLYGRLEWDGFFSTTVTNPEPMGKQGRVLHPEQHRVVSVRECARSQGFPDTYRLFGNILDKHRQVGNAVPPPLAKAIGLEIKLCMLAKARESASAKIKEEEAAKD

Consider `O=C(O)CCN1C(=O)/C(=C/c2ccc(-c3nc4ccccc4s3)o2)SC1=S`, for which the IC50 in assay [1] was 2.93 µM (active); in assay [2], 30.6 µM (active); in assay [3] it was > 100 µM (inactive); on Genome polyprotein, > 100 µM (active); in [6], 4.66 µM (active); on Prothrombin, 5.11 µM (active). The EC50 in assay [4] is 0.102 µM (active); in assay [5] it was 21.8 µM (active); in [7], 11.2 µM (active); in assay [8], 32.3 µM (active); in [9] it was 12.1 µM (active).
As for `CCc1cc(C(=O)Cc2ccc(F)cc2)c(O)cc1O`, the values for the IC50 in assay [10] and in [11] were 4.47 µM (active) and 8.38 µM (active), respectively.
Take `COc1ccc(C(=O)NCc2cnn(C)c2C)cc1OC1CCN(C(C)C)CC1`: the figures for the IC50 in [10] and in assay [11] were 2.38 µM (active) and 4.47 µM (active), respectively.
With `COc1ccc(Cl)cc1NC(=O)CCS(=O)(=O)c1cc2c(cc1Br)CCN2C(C)=O`, in assay [12], the EC50 is > 100 µM (inactive).

The IC50 is the concentration at which inhibition is half-maximal.
